From patent publication US20260091026A1, “METHODS OF TREATING INFLAMMATORY DISEASES” (INTERLINE THERAPEUTICS, INC., priority 2023, published 2026)
pIC50: −log10 of the molar value.

Legend:
RIPK2 (KD)/XIAP (BIR2) = target: T1, RIPK2 (KD)/XIAP (BIR2) (Homo sapiens, UniProt O43353); test: RIPK2-XIAP binding competition PPI assay (TR-FRET); settings: for Emax: 50 nM of GSK583 = -100% activity, read-out: PPI Amax; for pIC50: GST-RIPK2 / His-XIAP (BIR2)-avi, 120 min at 23° C.
T1 construct: made in house; host or cells: baculovirus-infected Sf9 cells
T1 sequence (O43353 1-310): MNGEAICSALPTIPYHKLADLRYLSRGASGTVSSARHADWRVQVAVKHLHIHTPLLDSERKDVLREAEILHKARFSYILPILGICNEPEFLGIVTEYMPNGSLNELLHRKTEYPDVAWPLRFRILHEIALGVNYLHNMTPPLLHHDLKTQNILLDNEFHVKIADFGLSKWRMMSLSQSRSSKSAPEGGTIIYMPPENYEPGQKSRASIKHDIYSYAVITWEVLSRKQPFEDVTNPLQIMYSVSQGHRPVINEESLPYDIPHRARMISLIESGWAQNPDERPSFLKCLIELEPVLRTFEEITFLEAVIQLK
Procedure, shortened: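 After 2 h at 23 °C, complex formation was read as the 665/520 nm emission ratio (337 nm excitation), scaled between uninhibited reaction and 50 nM GSK583. The mix held 1 nM human RIPK2 kinase fragment-GST, 25 nM His-tagged XIAP BIR2 and Tb/XL665 antibodies in pH 7.5 Tris buffer containing vanadate and glycerophosphate.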

[1] = test system: THP1-Dual cells, NF-κB pathway (SEAP); test: THP-1 Dual cell SEAP assay (L18-MDP stimulated); format: cell-based; settings: Homo sapiens, 10 ng/mL L18-MDP, 20-24 h, SEAP readout, read-out: IFNγ THP1 IC50
Procedure, shortened: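 IC50 values come from non-linear fits of % inhibition of SEAP, measured as QUANTI-Blue optical density (620-655 nm, 2 h) in media-blanked supernatants. These were taken from THP1-Dual cells treated with compound for 30 min before overnight exposure to 10 ng/mL L18-MDP final at 37 °C.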

Row | SMILES | Emax (RIPK2 (KD)/XIAP (BIR2)) | pIC50 (RIPK2 (KD)/XIAP (BIR2)) | pIC50 [1]
1 | COc1cc2ncc(-c3cc(C(=O)N[C@H](C)c4ccccn4)n(C)n3)n2cc1C1(F)CCN(C)CC1 [Example 47, (R)-3-(6-(4-fluoro-1-methylpiperidin-4-yl)-7-methoxyimidazo[1,2-a]pyridin-3-yl)-1-methyl-N-(1-(pyridin-2-yl)ethyl)-1H-pyrazole-5-carboxamide] | ≥ 80% | 7.00 to 8.00 | 5.60 to 6.30
2 | COc1cc2ncc(-c3cc(C(=O)NCc4ccsn4)n(C)n3)n2cc1S(=O)(=O)C(C)(C)C [Example 86, 3-(6-(tert-butylsulfonyl)-7-methoxyimidazo[1,2-a]pyridin-3-yl)-N-(isothiazol-3-ylmethyl)-1-methyl-1H-pyrazole-5-carboxamide] | ≥ 80% | 7.00 to 8.00 | 6.30 to 7.00
3 | COc1cc2ncc(-c3cc(C(=O)NCc4nccs4)n(C)n3)n2cc1S(=O)(=O)C(C)(C)C [Example 84, 3-(6-(tert-butylsulfonyl)-7-methoxyimidazo[1,2-a]pyridin-3-yl)-1-methyl-N-(thiazol-2-ylmethyl)-1H-pyrazole-5-carboxamide] | ≥ 80% | 7.00 to 8.00 | 5.60 to 6.30
4 | COc1cc2ncc(-c3cc(C(=O)N[C@@H]4C[C@H]4c4ccccc4)n(C)n3)n2cc1S(=O)(=O)C(C)(C)C (single isomer, unassigned) [Example 33, trans-(1R,2S) or (1S,2R) 3-(6-(tert-butylsulfonyl)-7-methoxyimidazo[1,2-a]pyridin-3-yl)-1-methyl-N-(2-phenylcyclopropyl)-1H-pyrazole-5-carboxamide] | ≥ 80% | 6.00 to 7.00 | < 5.60
5 | COc1cc2ncc(-c3cc(C(=O)NCc4ccccc4C#N)n(C)n3)n2cc1S(=O)(=O)C(C)(C)C [Example 83, 3-(6-(tert-butylsulfonyl)-7-methoxyimidazo[1,2-a]pyridin-3-yl)-N-(2-cyanobenzyl)-1-methyl-1H-pyrazole-5-carboxamide] | ≥ 80% | 6.00 to 7.00 | < 5.60
6 | COc1cc2ncc(-c3cc(C(=O)NC4(c5ncccn5)CC4)n(C)n3)n2cc1S(=O)(=O)C(C)(C)C [Example 55, 3-(6-(tert-butylsulfonyl)-7-methoxyimidazo[1,2-a]pyridin-3-yl)-1-methyl-N-(1-(pyrimidin-2-yl)cyclopropyl)-1H-pyrazole-5-carboxamide] | 30 to 55% | < 6.00 | < 5.60
7 | COc1cc2ncc(-c3cc(C(=O)NCc4cccnc4)n(C)n3)n2cc1S(=O)(=O)C(C)(C)C [Example 27, 3-(6-(tert-butylsulfonyl)-7-methoxyimidazo[1,2-a]pyridin-3-yl)-1-methyl-N-(pyridin-3-ylmethyl)-1H-pyrazole-5-carboxamide] | 55 to 80% | < 6.00 | < 5.60
8 | COc1cc2ncc(-c3cc(C(=O)N[C@H](C)c4ncccc4F)n(C4CNC4)n3)n2cc1S(=O)(=O)C(C)(C)C [Example 141, (R)-1-(azetidin-3-yl)-3-(6-(tert-butylsulfonyl)-7-methoxyimidazo[1,2-a]pyridin-3-yl)-N-(1-(3-fluoropyridin-2-yl)ethyl)-1H-pyrazole-5-carboxamide] | ≥ 80% | 6.00 to 7.00 | < 5.60
9 | COc1cc2ncc(-c3cc(C(=O)NCc4ncc(C)s4)n(C)n3)n2cc1S(=O)(=O)C(C)(C)C [Example 89, 3-(6-(tert-butylsulfonyl)-7-methoxyimidazo[1,2-a]pyridin-3-yl)-1-methyl-N-((5-methylthiazol-2-yl)methyl)-1H-pyrazole-5-carboxamide] | ≥ 80% | 7.00 to 8.00 | 6.30 to 7.00
10 | COc1cc2ncc(-c3cc(C(=O)N[C@@H](C)C4CC4)n(C)n3)n2cc1S(=O)(=O)C(C)(C)C [Example 36, (S)-3-(6-(tert-butylsulfonyl)-7-methoxyimidazo[1,2-a]pyridin-3-yl)-N-(1-cyclopropylethyl)-1-methyl-1H-pyrazole-5-carboxamide] | 30 to 55% | < 6.00 | < 5.60
11 | COc1cc2ncc(-c3cc(C(=O)NCc4ncsn4)n(C)n3)n2cc1S(=O)(=O)C(C)(C)C [Example 90, N-((1,2,4-thiadiazol-3-yl)methyl)-3-(6-(tert-butylsulfonyl)-7-methoxyimidazo[1,2-a]pyridin-3-yl)-1-methyl-1H-pyrazole-5-carboxamide] | 55 to 80% | 7.00 to 8.00 | 5.60 to 6.30
12 | COc1cc2ncc(-c3cc(C(=O)NCc4nsc(C)n4)n(C)n3)n2cc1S(=O)(=O)C(C)(C)C [Example 91, 3-(6-(tert-butylsulfonyl)-7-methoxyimidazo[1,2-a]pyridin-3-yl)-1-methyl-N-((5-methyl-1,2,4-thiadiazol-3-yl)methyl)-1H-pyrazole-5-carboxamide] | 55 to 80% | 6.00 to 7.00 | < 5.60
13 | COc1cc2ncc(-c3cc(C(=O)NCc4ccccn4)n(C)n3)n2cc1S(=O)(=O)C(C)(C)C [Example 26, 3-(6-(tert-butylsulfonyl)-7-methoxyimidazo[1,2-a]pyridin-3-yl)-1-methyl-N-(pyridin-2-ylmethyl)-1H-pyrazole-5-carboxamide] | ≥ 80% | 6.00 to 7.00 | 5.60 to 6.30
14 | CCn1nc(-c2cnc3cc(OCCO)c(S(=O)(=O)C(C)(C)C)cn23)cc1C(=O)N[C@H](C)c1ncccc1F [Example 118, (R)-3-(6-(tert-butylsulfonyl)-7-(2-hydroxyethoxy)imidazo[1,2-a]pyridin-3-yl)-1-ethyl-N-(1-(3-fluoropyridin-2-yl)ethyl)-1H-pyrazole-5-carboxamide] | ≥ 80% | > 8.00 | > 7.00
15 | CCn1nc(-c2cnc3cc(OC)c(S(=O)(=O)C(C)(C)C)cn23)cc1C(=O)N[C@@H](C)c1ccn(C)n1 [Example 124, (S)-3-(6-(tert-butylsulfonyl)-7-methoxyimidazo[1,2-a]pyridin-3-yl)-1-ethyl-N-(1-(1-methyl-1H-pyrazol-3-yl)ethyl)-1H-pyrazole-5-carboxamide] | ≥ 80% | 6.00 to 7.00 | < 5.60
16 | COc1cc2ncc(-c3cc(C(=O)NCc4cnn(C)c4)n(C)n3)n2cc1S(=O)(=O)C(C)(C)C [Example 25, 3-(6-(tert-butylsulfonyl)-7-methoxyimidazo[1,2-a]pyridin-3-yl)-1-methyl-N-((1-methyl-1H-pyrazol-4-yl)methyl)-1H-pyrazole-5-carboxamide] | ≤ 30% | < 6.00 | < 5.60
17 | C[C@@H](NC(=O)c1cc(-c2cnn3cc(OCCO)c(S(=O)(=O)C(C)(C)C)cc23)nn1C)c1ncccc1F [Example 116, (R)-3-(5-(tert-butylsulfonyl)-6-(2-hydroxyethoxy)pyrazolo[1,5-a]pyridin-3-yl)-N-(1-(3-fluoropyridin-2-yl)ethyl)-1-methyl-1H-pyrazole-5-carboxamide] | ≥ 80% | 7.00 to 8.00 | 6.30 to 7.00
18 | COc1cc2ncc(-n3cc(C(=O)NCc4ccccc4)c(C)n3)n2cc1S(=O)(=O)C(C)(C)C [Example 148, N-benzyl-1-(6-(tert-butylsulfonyl)-7-methoxyimidazo[1,2-a]pyridin-3-yl)-3-methyl-1H-pyrazole-4-carboxamide] | ≥ 80% | 6.00 to 7.00 | < 5.60
